Test results from paper PMC8333309, “Mechanism of LolCDE as a molecular extruder of bacterial triacylated lipoproteins” (Nature Communications, 2021).

Target: T1, LolCDE (Escherichia coli, UniProt P75957)
T1 construct: gene lolD; co-expressed in E. coli BL21(DE3); purified in DDM, reconstituted into MSP1D1/POPG nanodiscs; co-purifies with lipoprotein; with Lipoprotein-releasing system transmembrane protein LolC; Lipoprotein-releasing system transmembrane protein LolE
T1 sequence (P75957 1-233): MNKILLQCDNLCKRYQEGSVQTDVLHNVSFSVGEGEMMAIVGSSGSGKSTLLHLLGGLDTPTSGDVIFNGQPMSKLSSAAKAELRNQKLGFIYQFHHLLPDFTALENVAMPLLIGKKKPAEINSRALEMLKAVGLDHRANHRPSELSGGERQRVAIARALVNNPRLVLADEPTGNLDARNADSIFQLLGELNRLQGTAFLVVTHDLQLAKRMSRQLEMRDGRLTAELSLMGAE
T1 sequence (P0ADC3 1-399 partner): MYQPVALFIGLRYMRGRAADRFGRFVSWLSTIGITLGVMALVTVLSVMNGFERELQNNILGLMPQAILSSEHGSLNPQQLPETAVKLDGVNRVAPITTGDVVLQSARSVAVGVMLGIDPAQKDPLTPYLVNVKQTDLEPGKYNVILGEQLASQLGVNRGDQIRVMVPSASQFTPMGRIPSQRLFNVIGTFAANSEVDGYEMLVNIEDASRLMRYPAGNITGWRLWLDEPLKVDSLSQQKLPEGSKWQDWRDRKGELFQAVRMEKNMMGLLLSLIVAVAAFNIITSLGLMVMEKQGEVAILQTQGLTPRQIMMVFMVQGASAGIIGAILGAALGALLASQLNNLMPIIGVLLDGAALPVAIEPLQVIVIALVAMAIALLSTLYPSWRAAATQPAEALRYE
T1 sequence (P75958 2-414 partner): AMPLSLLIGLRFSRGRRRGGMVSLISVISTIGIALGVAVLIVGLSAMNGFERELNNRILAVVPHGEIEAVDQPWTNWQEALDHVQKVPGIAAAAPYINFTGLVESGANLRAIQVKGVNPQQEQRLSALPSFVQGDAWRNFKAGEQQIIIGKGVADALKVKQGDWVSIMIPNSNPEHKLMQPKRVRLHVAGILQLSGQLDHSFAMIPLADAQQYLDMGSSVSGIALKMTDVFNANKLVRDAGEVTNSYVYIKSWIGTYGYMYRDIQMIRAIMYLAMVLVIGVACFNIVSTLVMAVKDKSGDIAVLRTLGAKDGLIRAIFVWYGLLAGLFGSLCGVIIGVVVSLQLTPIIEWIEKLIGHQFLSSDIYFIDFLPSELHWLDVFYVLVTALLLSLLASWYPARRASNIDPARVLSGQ
Experiment: colorimetric phosphate-release ATPase assay
Assay type: biochemical
Conditions: LolCDE in nanodiscs; 4 mM ATP, 4 mM MgCl2, pH 8, 37 °C; traps ADP-vanadate in the ATP site

[O]=[V]([OH])([OH])[OH] [orthovanadate]
% inhibition at 0.1 mM: ~ 90%
